# What was measured:
# [1] = system: subjects having a systolic BP≧160 mmHg or diastolic BP≧95 mmHg (elevated blood pressure); test: Example 3: blood pressure change in subjects with elevated blood pressure, none taking angiotensin antagonists (two double-blind studies); format: in vivo, human
# Method: None of these subjects were taking any angiotensin antagonists, but might have been taking some other type of antihypertensive drug at the baseline (start) of the study. These 187 subjects were part of two (2) DB studies. One study was of 28 weeks in duration during which subjects received 80 mg, 120 mg or 240 mg QD of febuxostat or placebo or allopurinol 300 or 100 mg QD, depending on the subject's renal function. The second study was of 52 weeks in duration during which subjects received 80 mg or 120 mg QD of febuxostat or allopurinol 300 mg QD. Of these 187 subjects, all completed 4 weeks of treatment and 132 completed 28 weeks of treatment. A total of 52 weeks of treatment was completed by 15 subjects in the febuxostat 80 mg QD group, 11 in the febuxostat 120 mg QD group and 22 in the allopurinol 300/100 mg QD group. Because of the shorter duration of one of the 2 DB studies, no subject in the placebo and febuxostat 240 mg QD groups were treated for 52 weeks.
# [2] = system: oxonic acid (OA)-induced hyperuricemic model in Sprague-Dawley rats; test: Example 4: plasma uric acid in normal and OA-dosed rats; format: in vivo
# Method: Materials and Methods. To produce hyperuricemia, rats received OA (Sigma, St Louis Mo., USA) 750 mg/kg body weight daily by gastric gavage. To investigate the treatment effect of febuxostat (also referred to herein as “Fx”), the drug was administered in drinking water at 50 mg/L (approximately 5-6 mg/kg/day) four weeks after OA dosing while the respective controls received 5.84 mg/L of NaCl in drinking water (to maintain a salt concentration equivalent to the Febuxostat-containing water). […] Body weight, food and water intakes were measured daily. Systolic blood pressure, obtained in conscious rats by a tail cuff sphygmomanometer, and plasma uric acid were measured in all animals at baseline and at the end of four and eight weeks. […]
# Evaluation. Food and water intake were determined daily. Systolic blood pressure (hereinafter “SBP”) was measured in conscious animals by a tail cuff sphygmomanometer using an automated system (XBP-100, Kent Scientific Co, USA). […] Plasma UA, insulin and triglycerides were quantified using commercial kits (Diagnostic Chemicals Ltd, USA; Crystalchem, USA and Spinreact, Spain, respectively).
# Statistical Analysis. Values were expressed as mean±standard error of the mean (hereinafter “SEM”). In the study, values from the respective four treatment groups were analyzed by one-way analysis of variance (hereinafter “ANOVA”). […]
# [3] = 80 mg QD, after 4 weeks of treatment
# [4] = 80 mg QD, after 28 weeks of treatment
# [5] = 80 mg QD, after 52 weeks of treatment
# [6] = 120 mg QD, after 4 weeks of treatment
# [7] = 120 mg QD, after 28 weeks of treatment
# [8] = 120 mg QD, after 52 weeks of treatment
# [9] = 240 mg QD, after 4 weeks of treatment
# [10] = 240 mg QD, after 28 weeks of treatment
smiles,measurement,setting,value
"Cc1nc(-c2ccc(OCC(C)C)c(C#N)c2)sc1C(=O)O [febuxostat, 2-[3-cyano-4-(2-methylpropoxy)phenyl]-4-methylthiazole-5-carboxylic acid]",mean change from baseline for diastolic BP,[1]; [3],−3.1 mmHg
same,mean change from baseline for mean arterial BP,[1]; [3],−4.3 mmHg
same,mean change from baseline for systolic BP,[1]; [3],−6.7 mmHg
same,mean change from baseline for diastolic BP,[1]; [4],−7.3 mmHg
same,mean change from baseline for mean arterial BP,[1]; [4],−9.0 mmHg
same,mean change from baseline for systolic BP,[1]; [4],−12.6 mmHg
same,mean change from baseline for diastolic BP,[1]; [5],−8.4 mmHg
same,mean change from baseline for mean arterial BP,[1]; [5],−11.6 mmHg
same,mean change from baseline for systolic BP,[1]; [5],−17.9 mmHg
same,mean change from baseline for diastolic BP,[1]; [6],−7.5 mmHg
same,mean change from baseline for mean arterial BP,[1]; [6],−7.8 mmHg
same,mean change from baseline for systolic BP,[1]; [6],−8.5 mmHg
same,mean change from baseline for diastolic BP,[1]; [7],−8.5 mmHg
same,mean change from baseline for mean arterial BP,[1]; [7],−9.9 mmHg
same,mean change from baseline for systolic BP,[1]; [7],−12.8 mmHg
same,mean change from baseline for diastolic BP,[1]; [8],−7.4 mmHg
same,mean change from baseline for mean arterial BP,[1]; [8],−11.1 mmHg
same,mean change from baseline for systolic BP,[1]; [8],−18.6 mmHg
same,mean change from baseline for diastolic BP,[1]; [9],−9.1 mmHg
same,mean change from baseline for mean arterial BP,[1]; [9],−9.8 mmHg
same,mean change from baseline for systolic BP,[1]; [9],−11.3 mmHg
same,mean change from baseline for diastolic BP,[1]; [10],−4.9 mmHg
same,mean change from baseline for mean arterial BP,[1]; [10],−6.3 mmHg
same,mean change from baseline for systolic BP,[1]; [10],−9.2 mmHg
same,plasma uric acid levels (effect in words),"[2]; OA-dosed rats, febuxostat added beginning at 4 weeks, FIG. 1",reduced the uric acid levels back into the normal range
same,uric acid levels relative to control,"[2]; normal rats receiving febuxostat, difference not statistically significant",approximately 53 % of control values

# — US20140329868A1, “METHODS FOR TREATING HYPERTENSION” (TAKEDA PHARMACEUTICALS U.S.A., INC., priority 2005, published 2014)
